# pKd: −log10 of the molar value.
# What was measured:
# [1] = molecular target: T1, SULT1A3 (Homo sapiens, UniProt P0DMM9); set-up: method as in PMID 30545938; conditions: saturating inhibitor, cited from earlier work
# T1 construct: E. coli–optimized SULT coding regions were inserted into a pGEX-6P expression vector; N-His/GST/MBP triple tag (PreScission-cleavable) (N, cleaved yes); made in house; host or cells: E. coli BL21(DE3)
# [2] = molecular target: T1, SULT1A3; experiment: Pre-steady-state (stopped-flow fluorescence) binding of PAP to SULT1A3 complexes; conditions: for pKd: read-out: Kd (koff/kon)
# Excerpt: Figure 4 The inhibition mechanism. A, equilibrium binding. Binding was monitored via ligand-induced changes in SULT1A3 intrinsic fluorescence (λex = 290 nm, λem = 335 nm). […] Each dot represents the average of three independent titrations. Lines passing through the data represent the outcomes predicted by least-squares fitting of the averaged data to a single-binding-site model. B, representative PAP-binding reaction. PAP binding was monitored using a stopped-flow fluorimeter (λex = 290 nm, λem ≥ 330 nm (cutoff filter)). Reactions were initiated by rapidly mixing (1:1 v/v) a solution containing SULT1A3 (30 nM, dimer), CMP13 (1.0 μM, 100 × Kd), Tam (160 μM, 200 × Kd), KPO4 (50 mM), pH 7.5, 25(±2) °C, with a solution that was identical except that it lacked SULT1A3 and contained PAP (2.0 μM). The average of five independent progress curves shown and the kobs was obtained by fitting the data to a single exponential. C, pre–steady-state binding. PAP binding was monitored as described for panel B. Reactions were initiated by mixing (1:1 v/v) a solution containing SULT1A3 (30 nM, dimer), CMP13 [0 μM (black dots) or 1.0 μM, 100 × Kd (red and blue dots)], Tam [0 μM (black and blue dots) or 160 μM, 200 × Kd (red dots)], KPO4 (50 mM), pH 7.5, 25(±2) °C, with a solution that was identical except that it lacked SULT1A3 and contained PAP at twice the indicated concentrations. Each kobs value was determined in triplicate, and the averaged values are shown. kon and koff are given, respectively, by the slopes and intercepts obtained from linear least-squares fitting of the kobs vs [PAP] plot. PAP, 3′-phosphoadenosine-5′-phosphate; SULT1A3, sulfotransferase 1A3; Tam, 4-hydroxy-tamoxifen.
# To resolve this uncertainty, PAP on- and off-rate constants for a series of open and closed complexes were determined using stopped-flow fluorescence. A representative binding reaction can be seen in Fig. 4B. The binding reactions were pseudo-first order in [PAP], and kobs values were obtained by fitting reaction progress curves to a single-exponential equation. On- and off-rate constants (see Table 3) are given by the plot slopes and intercepts.
# Pre–steady-state binding of PAP to SULT1A3 was monitored via ligand-induced changes in SULT1A3 fluorescence using an Applied Photophysics SX20 stopped-flow spectrofluorometer. Fluorescence was measured at λex = 290 nm and λem ≥ 330 nm (using a cutoff filter). […] All reactions were pseudo first order with respect to [PAP]. kobs values, determined in triplicate at each PAP concentration, were obtained by least-squares fitting the average of five progress curves to a single-exponential equation. kon and koff, obtained by linear least-squares fitting, are given by the slopes and intercepts of four-point kobs-vs-[PAP] plots.
# [3] = molecular target: T1, SULT1A3; experiment: Equilibrium binding of PAP to SULT1A3 complexes (intrinsic fluorescence)
# Procedure: CMP13 binding to SULT1A3 was monitored via binding-induced changes in SULT1A3 intrinsic fluorescence (λex= 290 nm, λem= 335 nm ([17])). […] PAP binding was determined using the same protocol except that [PAP] was varied and CMP13 was 1.0 μM (100 × Ki). Titrations were performed in triplicate. Data were averaged and least-squares fit using a model that assumes a single binding site per monomer.
# [4] = PAP binding to complex E·CMP13, CMP13 1.0 μM
# [5] = PAP binding to complex E·CMP13·Tam, CMP13 1.0 μM, Tam 160 μM
# [6] = PAP binding to complex E·CMP13·Tam
# T1 sequence (P0DMM9 whole entry): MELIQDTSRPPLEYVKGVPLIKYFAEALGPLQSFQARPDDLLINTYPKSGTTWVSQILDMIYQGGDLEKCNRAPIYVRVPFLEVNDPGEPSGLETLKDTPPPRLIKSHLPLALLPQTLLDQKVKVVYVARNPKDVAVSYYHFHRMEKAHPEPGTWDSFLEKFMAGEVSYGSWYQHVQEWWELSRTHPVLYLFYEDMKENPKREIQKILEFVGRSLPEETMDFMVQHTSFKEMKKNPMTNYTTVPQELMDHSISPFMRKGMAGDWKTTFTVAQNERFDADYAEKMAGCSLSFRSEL
koff ([2]; PAP binding to complex E) [s⁻¹],kon ([2]; PAP binding to complex E) [M⁻¹ s⁻¹],pKd ([2]; PAP binding to complex E),"koff [2, 4] [s⁻¹]","kon [2, 4] [M⁻¹ s⁻¹]",pKd ([2]; PAP binding to complex E·CMP13),"koff [2, 5] [s⁻¹]","kon [2, 5] [M⁻¹ s⁻¹]","pKd [2, 6]",pKd ([3]; PAP binding to complex E),"pKd [3, 4]","pKd [3, 6]",Compound,% Inhibition at saturation ([1]; in vitro),factor by which SULT1A3 turnover is reduced at saturation [1],turnover at saturation as % of that seen in absence of inhibitor [1] [%]
,,,,,,,,,,,,CC(C)Cc1ccc2cc(CO)ccc2n1 [CMP8],54 (3) %,2,46
2.5,6.9e+06,6.44,0.18,6.6e+06,7.54,2.3,6.5e+06,6.46,6.49,7.51,6.46,"Nc1ncnc2c1ncn2[C@@H]1O[C@H](COP(=O)(O)O)[C@@H](OP(=O)(O)O)[C@H]1O [PAP, 3′-phosphoadenosine-5′-phosphate]",,,
